Measured values reported in patent publication US9867879B2 (Vanderbilt University, priority 2015, dated 2018).
Entries after “also recorded” stand apart in the source; their conditions may differ. Where two headings read alike, the source gives them in different places.

Key:
[1] = tested on: HssRS; experiment: microbe, parasite or virus in culture; type: cell-based, S. aureus; settings: for HssRS activation in single point screen: 50 μM, fraction of activation relative to 1, cut-off 0.05, in words; for EC50: Staphylococcus aureus, 6 h; for Efficacy: percent activation of HssRS compared to 1 at 50 μM, error one standard deviation
Procedure: Previously reported strains were used.^11 Cultures grown overnight in 5 ml TSB with 10 μg mL^−1 chloramphenicol for 15-18 h were subcultured 1:100 into 0.5 mL TSB with 10 μg mL^−1 chloramphenicol containing compound and incubated at 37° C., 180 rpm for 6 h. Cells were washed and lysed as previously described. 200 μL of a 200 μM catechol solution in 100 mM potassium phosphate (pH 8.0) was added to 20 μL of lysate and the oxidation of catechol was followed by monitoring absorbance at 375 nm for 10 min. Samples were normalized to protein concentration as determined by BCA assay (Pierce).
The above XylE procedure was followed using different concentrations of compound. The data were then entered into Graphpad Prism 6 and fit to a curve to determine EC50 values.
HssRS activation. The library was screened for activation of the heme stress response as an indicator for activation of heme biosynthesis in S. aureus. We began by screening at the single point concentration of 50 μM using a previously described reporter assay (FIG. 4).^11 In this assay, Newman harboring a plasmid with the hrt promoter fused to xylE, a gene encoding a catechol oxidase, is treated with compound for six hours, the bacteria lysed, and the oxidation of catechol by XylE quantified by spectrophotometry. An increase in absorbance due to the oxidation of catechol indicates elevated levels of xylE transcription and hrt promoter activity. Results are expressed as the fraction of activation of HssRS by the compound compared to 1. […] With reference to FIG. 8, activation of HssRS by 3a and 3b at 50 μM. Activity is presented as the fraction of activation by the indicated derivative relative to 1 at 50 μM.

[2] = tested on: wild type S. aureus strain Newman; experiment: Growth inhibition IC50, Newman anaerobic (fermenting); type: cell-based; settings: for IC50: Staphylococcus aureus, NEWMAN, 9 h of growth, anaerobic chamber, 95% confidence interval, >60 μM considered nontoxic; for toxicity to fermenting / anaerobic S. aureus (in words): anaerobic Newman and ΔmenB, from IC50 data
Procedure: (§1) Cultures of wild type S. aureus strain Newman and ΔmenB^14 were grown in aeration tubes aerobically at 37° C. with shaking for 15-18 h. Anaerobic cultures were prepared by growing bacteria at 37° C. without shaking in an anaerobic chamber for 15-18 h. Bacteria from each condition were subcultured 1:100 into TSB containing various concentrations of compound in a 96 well plate. Aerobic wild type and ΔmenB plates are incubated aerobically at 37° C. with shaking while anaerobic plates were grown in an anaerobic chamber (Coy) at 37° C. without shaking. The absorbance at 600 nm (OD600) was determined after 9 h of growth and the fraction of growth at each compound concentration is determined by dividing the OD600 by the vehicle control (DMSO) value. IC50s were calculated using Graphpad Prism 6 and errors are reported as 95% confidence intervals.
(§2) Wild type S. aureus strain Newman was grown in an anaerobic chamber in appropriate media to ensure exclusion of terminal electron acceptors sufficient to force the bacteria to ferment. […] The arbitrary cut off point for toxicity of 60 μM was chosen as many of the compounds were not entirely soluble above this concentration.

[3] = tested on: wild type S. aureus strain Newman; experiment: Growth inhibition IC50, Newman aerobic; type: cell-based; settings: Staphylococcus aureus, NEWMAN, 95% confidence interval, >60 μM considered nontoxic
Procedure: as §1, §2

[4] = tested on: ΔmenB; experiment: Growth inhibition IC50, ΔmenB; type: cell-based, S. aureus; settings: Staphylococcus aureus, 9 h, read-out: IC50 ΔmenB
Procedure: as §1, with “intervals. […]” for “intervals.”

[5] = 9 h, read-out: IC50 Newman aerobic, 9 h of growth, aerobic
[6] = 9 h of growth, aerobic, read-out: IC50 Newman aerobic

With `Oc1cccc(-c2cc(-c3ccco3)[nH]n2)c1` [Compound 1e, 3-(5-(furan-2-yl)-1H-pyrazol-3-yl)phenol] the “HssRS activation in single point screen” value [1] was “loss of HssRS activation compared to 1 and 1a”, the IC50 [2] was greater than 60 µM and the IC50 [3, 5] was greater than 60 µM. It also gave an IC50 [4] greater than 60 µM.
In the case of `Oc1ccccc1-c1cc(-c2cc(F)ccc2F)[nH]n1` [Compound 2f, 2-(5-(2,5-difluorophenyl)-1H-pyrazol-3-yl)phenol], the “HssRS activation in single point screen” value [1] is reported as “comparable to 1a in activity”, the EC50 [1] is reported as 13.6 µM and the EC50 ([1]; read-out: pEC50 (converted)) is reported as 12.6 µM. For the same molecule, the drop in efficacy ([1]; compared to 1) was roughly 70%, the Efficacy [1] was 30.1 ± 8.0% and the IC50 [2] was greater than 60 µM. For the same molecule, the “toxicity to fermenting / anaerobic S. aureus (in words)” value [2] was “eliminates this toxicity”, the IC50 [3, 5] was greater than 60 µM and the IC50 [4] was greater than 60 µM.
In the case of `Cc1cc(-c2ccccc2O)n[nH]1` [Compound 2k, 2-(5-methyl-1H-pyrazol-3-yl)phenol], the IC50 [2] is reported as greater than 60 µM, the “toxicity to fermenting / anaerobic S. aureus (in words)” value [2] is reported as “nontoxic under all conditions” and the IC50 [3, 5] is reported as greater than 60 µM. For the same molecule, the IC50 [4] was greater than 60 µM.
`Oc1ccccc1-c1cc(-c2cccnc2)[nH]n1` [Compound 2h, 2-(5-(pyridin-3-yl)-1H-pyrazol-3-yl)phenol] was tested, and the IC50 [2] was greater than 60 µM, the IC50 [3, 5] was greater than 60 µM and the IC50 [4] was greater than 60 µM.
For `Oc1ccccc1-c1cc(-c2ccccn2)[nH]n1` [Compound 2g], the IC50 [2] was greater than 60 µM, the IC50 [3, 5] was greater than 60 µM and the IC50 [4] was greater than 60 µM.
With `c1ccc(-c2cc(-c3ccco3)[nH]n2)cc1` [Compound 1g, 5-(furan-2-yl)-3-phenyl-1H-pyrazole] the “HssRS activation in single point screen” value [1] was “loss of HssRS activation compared to 1 and 1a”, the IC50 [2] was greater than 60 µM and the IC50 [3, 5] was greater than 60 µM. For the same molecule, the IC50 [4] was greater than 60 µM.
Work on `Oc1ccccc1-c1cc(-c2ccoc2)[nH]n1` [Compound 2b] yielded an IC50 [2] greater than 60 µM, an IC50 [3, 5] greater than 60 µM and an IC50 [4] greater than 60 µM.
`CCc1cc(-c2ccccc2O)n[nH]1` [Compound 2l, 2-(5-ethyl-1H-pyrazol-3-yl)phenol] was tested, and the IC50 [2] was greater than 60 µM, the “toxicity to fermenting / anaerobic S. aureus (in words)” value [2] was “nontoxic under all conditions” and the IC50 [3, 5] was greater than 60 µM. The IC50 [4] was greater than 60 µM.
For `Oc1ccccc1-c1cc(-c2ccco2)[nH]n1` [Compound 1a, 2-(5-(furan-2-yl)-1H-pyrazol-3-yl)phenol], the “HssRS activation in single point screen” value [1] was “modest loss of activity compared to 1”, the EC50 [1] was 30.4 µM and the EC50 ([1]; read-out: pEC50 (converted)) was 32.4 µM. The Efficacy [1] was 28.2 ± 5.4%, the “toxicity to fermenting / anaerobic S. aureus (in words)” value [2] was “relatively nontoxic to fermenting S. aureus” and the IC50 [3, 6] was greater than 60 µM. The IC50 [4] was 35.6 µM.
`COc1ccccc1-c1cc(-c2ccccc2F)[nH]n1` [Compound 3b, 5-(2-fluorophenyl)-3-(2-methoxyphenyl)-1H-pyrazole] was tested, and the IC50 [2] was greater than 60 µM, the “toxicity to fermenting / anaerobic S. aureus (in words)” value [2] was “eliminates toxicity” and the IC50 [3, 5] was greater than 60 µM. It also gave an IC50 [4] greater than 60 µM.
For `COc1ccccc1-c1cc(-c2ccco2)[nH]n1` [Compound 1d, 5-(furan-2-yl)-3-(2-methoxyphenyl)-1H-pyrazole], the “HssRS activation in single point screen” value [1] was “loss of HssRS activation compared to 1 and 1a”, the IC50 [2] was greater than 60 µM and the IC50 [3, 5] was greater than 60 µM. The IC50 [4] was greater than 60 µM.
With `Cn1nc(-c2ccc3ccccc3c2O)cc1-c1ccco1` [Compound 4b, 2-(5-(furan-2-yl)-1-methyl-1H-pyrazol-3-yl)naphthalen-1-ol] the “HssRS activation in single point screen” value [1] was “complete loss of activity”, the IC50 [2] was 4.27 µM and the IC50 [3, 5] was greater than 60 µM. It also gave an IC50 [4] of 3.3 µM.
For `Oc1ccccc1-c1cc[nH]n1` [Compound 2j, 2-(1H-pyrazol-3-yl)phenol], the “HssRS activation in single point screen” value [1] was “eliminates activity compared to 1 and 1a”, the IC50 [2] was greater than 60 µM and the “toxicity to fermenting / anaerobic S. aureus (in words)” value [2] was “nontoxic under all conditions”. For the same molecule, the IC50 [3, 5] was greater than 60 µM and the IC50 [4] was greater than 60 µM.
For `COc1c(-c2cc(-c3ccco3)[nH]n2)ccc2ccccc12` [Compound 1c, 5-(furan-2-yl)-3-(1-methoxynaphthalen-2-yl)-1H-pyrazole], the “HssRS activation in single point screen” value [1] was “complete loss of activity”, the IC50 [2] was greater than 60 µM and the “toxicity to fermenting / anaerobic S. aureus (in words)” value [2] was “eliminates toxicity”. For the same molecule, the IC50 [3, 5] was greater than 60 µM and the IC50 [4] was greater than 60 µM.
With `Oc1ccc(-c2cc(-c3ccco3)[nH]n2)cc1` [Compound 1f] the “HssRS activation in single point screen” value [1] was “loss of HssRS activation compared to 1 and 1a”, the IC50 [2] was greater than 60 µM and the IC50 [3, 5] was greater than 60 µM. For the same molecule, the IC50 [4] was greater than 60 µM.
`Cn1nc(-c2ccco2)cc1-c1ccc2ccccc2c1O` [Compound 4a, 2-(3-(furan-2-yl)-1-methyl-1H-pyrazol-5-yl)naphthalen-1-ol] was tested, and the “HssRS activation in single point screen” value [1] was “complete loss of activity”, the IC50 [2] was 26.5 µM and the “toxicity to fermenting / anaerobic S. aureus (in words)” value [2] was “maintains toxicity comparable to the parent molecule”. The “toxicity relative to 4b” value ([2]; fermenting wildtype S. aureus and ΔmenB) was “approximately five times less toxic”, the IC50 [3, 5] was greater than 60 µM and the IC50 [4] was 15.7 µM.
For `Oc1ccccc1-c1cc(C2CCCC2)[nH]n1` [Compound 2n, 2-(5-cyclopentyl-1H-pyrazol-3-yl)phenol], the IC50 [2] was 25.3 µM, the “toxicity to fermenting / anaerobic S. aureus (in words)” value [2] was “comparably toxic to 1” and the IC50 [3, 5] was greater than 60 µM. It also gave an IC50 [4] of 29.7 µM.
In the case of `Oc1ccccc1-c1cc(-c2ccccc2)[nH]n1` [Compound 2c, 2-(5-phenyl-1H-pyrazol-3-yl)phenol], the “HssRS activation in single point screen” value [1] is reported as “restore activity comparable to 1”, the EC50 [1] is reported as 14.6 µM and the EC50 ([1]; read-out: pEC50 (converted)) is reported as 21.9 µM. The Efficacy [1] was 87.8 ± 23.7%, the “HssRS activation (in words)” value ([1]; summary statements, concentration not fixed) was “maintains HssRS activity” and the IC50 [2] was 24 µM. For the same molecule, the “toxicity to fermenting / anaerobic S. aureus (in words)” value [2] was “anaerobic toxicity similar to 1; also recorded: restores toxicity comparable to 1”, the IC50 [3, 6] was greater than 60 µM and the IC50 [4] was 25.2 µM.
With `O=C(Nc1ccccc1-c1cc(-c2ccco2)[nH]n1)c1ccco1` [Compound 1l, N-(2-(5-furan-2-yl)-1H-pyrazol-3-yl)phenylfuran-2-carboxamide] the IC50 [2] was 28.8 µM, the IC50 [3, 5] was greater than 60 µM and the IC50 [4] was 21.4 µM.
`CC(C)(C)c1cc(-c2ccccc2O)n[nH]1` [Compound 2m, 2-(5-(tert-butyl)-1H-pyrazol-3-yl)phenol] was tested, and the IC50 [2] was greater than 60 µM, the “toxicity to fermenting / anaerobic S. aureus (in words)” value [2] was “nontoxic under all conditions” and the IC50 [3, 5] was greater than 60 µM. It also gave an IC50 [4] greater than 60 µM.
With `COc1ccc(-c2cc(-c3ccco3)[nH]n2)c(O)c1` [Compound 1b, 2-(5-(furan-2-yl)-1H-pyrazol-3-yl)-5-methoxyphenol] the “HssRS activation in single point screen” value [1] was “modest loss of activity compared to 1”, the EC50 [1] was 50.2 µM and the EC50 ([1]; read-out: pEC50 (converted)) was 50.1 µM. The Efficacy [1] was 26.2 ± 6.7%, the IC50 [2] was greater than 60 µM and the “toxicity to fermenting / anaerobic S. aureus (in words)” value [2] was “relatively nontoxic to fermenting S. aureus”. It also gave an IC50 [3, 5] greater than 60 µM and an IC50 [4] greater than 60 µM.
With `O=C(Nc1ccccc1-c1cc(-c2ccco2)[nH]n1)c1cccc2ccccc12` [Compound 1k, N-(2-(5-(furan-2-yl)-1H-pyrazol-3-yl)phenyl)-1-naphthamide] the IC50 [2] was 13.4 µM, the IC50 [3, 5] was greater than 60 µM and the IC50 [4] was 5.89 µM.
With `COc1ccc(C(=O)Nc2ccccc2-c2cc(-c3ccco3)[nH]n2)cc1` [Compound 1j, N-(2-(5-(furan-2-yl)-1H-pyrazol-3-yl)phenyl)-4-methoxybenzamide] the IC50 [2] was 11.6 µM, the IC50 [3, 5] was greater than 60 µM and the IC50 [4] was 6.63 µM.
